For test [1], the system named is cellular ROCK activity (cofilin phosphorylation at Ser3) in A7r5 rat smooth muscle cells. As to the kind of experiment: Cellular ROCK activity: cofilin (Ser3) phosphorylation, In-Cell Western assay. The test is classed as cell-based. Particulars: 1 hour compound incubation, phospho-cofilin (Ser3), read-out: CELL_IC50. The method, then:
The potency of Rho-associated protein kinase (ROCK) inhibitors was quantified by measuring cofilin phosphorylation levels at Serine 3 (Ser3) as a measure of cellular ROCK activity by In-Cell Western assay. […] The assay plate was imaged and quantified on the Odyssey imager (LICOR Biosciences).
ROCK inhibitor compound plate preparation. […] Stock compounds and control are added directly to ECHO plate (Labcyte) by Janus.
A7r5 cell culture and plating. A7r5 cells were cultured according to standard cell culture protocols in A7r5 growth media (DMEM with Glutamax and 10% FBS). […] 45 μl of re-suspended A7r5 cells were plated at 3000 cells/well in a sterile, μclear, black, F-bottom, 384-well microplate (Greiner bio-one). Seeded cells allowed to settle in wells on the bench for 1 hour before incubation at 37° C., 5% CO2 overnight.
Assay reagent and antibody preparations. Wash buffer was prepared by addition of Tween-20 to Dulbecco's Phosphate Buffered Saline (DPBS) (1×) without calcium and magnesium to make 1% Tween-20 as final concentration. Blocking buffer was prepared by addition of TritonX-100 to SeaBlock buffer (ThermoFisher) to make 0.3% TritonX-100 as final concentration. […] Secondary antibody mix was prepared by diluting donkey anti-rabbit 800CW antibody (LICOR Biosciences) 1:1000 in SeaBlock buffer.
Assay procedure. Compound plate was diluted by addition of 19 μl/well compound dilution buffer (DMEM with Glutamax) using 125 μl 16-channel Matrix electronic pipette. 5 μl diluted compound was stamped from compound plate to assay plate containing A7r5 cells using Bravo (384-well head from Agilent) liquid handler and incubated at 37° C., 5% CO2 for 1 hour. Cells were fixed by addition of 5 μl 37% formaldehyde using 125 μl 16-channel Matrix electronic pipette and incubation for 20 min at room temperature. The assay plate was washed 5× with 60 μl/well wash buffer. […] Next, the assay plate was sealed, centrifuged at 1000 rpm for 5 seconds and incubated at 4° C. overnight on an orbital shaker at 300 rpm. […] The assay plate was centrifuged at 1000 rpm for 5 seconds and incubated on an orbital shaker at 300 rpm for 60 min at room temperature. Finally, assay plate was washed and wells left empty before measurement of 700 nm and 800 nm fluorescence intensities on Odyssey imager set at 4.0 mm focus offset.

The target in test [2] is human catalytic domain ROCK II protein (amino acids 5-554) with a N-terminal GST tag (Homo sapiens, UniProt O75116). Kind of test: biochemical.

Where two headings read alike, the source gives them in different places.

Sequence of human catalytic domain ROCK II protein (amino acids 5-554) with a N-terminal GST tag (O75116 5-554): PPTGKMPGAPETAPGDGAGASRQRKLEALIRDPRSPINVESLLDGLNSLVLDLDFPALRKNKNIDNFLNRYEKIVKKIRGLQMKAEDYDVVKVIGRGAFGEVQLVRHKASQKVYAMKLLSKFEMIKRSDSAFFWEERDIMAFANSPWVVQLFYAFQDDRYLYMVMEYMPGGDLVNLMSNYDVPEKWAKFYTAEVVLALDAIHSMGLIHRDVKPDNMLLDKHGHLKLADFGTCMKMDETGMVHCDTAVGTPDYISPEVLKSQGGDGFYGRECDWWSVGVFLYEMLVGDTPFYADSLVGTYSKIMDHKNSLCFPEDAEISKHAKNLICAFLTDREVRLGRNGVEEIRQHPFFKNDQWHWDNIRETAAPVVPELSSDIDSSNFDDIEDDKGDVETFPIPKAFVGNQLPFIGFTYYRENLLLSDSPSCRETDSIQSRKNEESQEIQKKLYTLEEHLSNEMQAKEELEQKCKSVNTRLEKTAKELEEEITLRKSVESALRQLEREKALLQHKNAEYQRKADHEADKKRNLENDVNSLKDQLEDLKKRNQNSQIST

`CC(NC(=O)N1CCN(c2ccncc2F)CC1)c1cccc(F)c1Cl` (single isomer, unassigned) [Example 22, N-(1-(2-Chloro-3-fluorophenyl)ethyl)-4-(3-fluoropyridin-4-yl)piperazine-1-carboxamide]: the IC50 in test [1] (Rattus norvegicus, A7R5, 1 h) stood at 1020 nM; in test [2], 46.7 nM. As to `CC(NC(=O)N1CCN(c2ccncc2F)CC1)c1cccc(F)c1Cl` (single isomer, unassigned) [Example 23, N-(1-(2-Chloro-3-fluorophenyl)ethyl)-4-(3-fluoropyridin-4-yl)piperazine-1-carboxamide], the IC50 stood at 1440 nM in test [1] and 88.8 nM in test [2].

On to `COc1cccc([C@@H](C)NC(=O)N2CCN(c3ccnc(F)c3)C[C@H]2C)c1` [Example 1, (R)-4-(2-Fluoropyridin-4-yl)-N—((R)-1-(3-methoxyphenyl)ethyl)-2-methylpiperazine-1-carboxamide], for which the IC50 in test [1] (Rattus norvegicus, A7R5, 1 h) worked out at 122 nM; in test [2], 6.5 nM. As to `COc1cccc([C@@H](C)OC(=O)N2CCN(c3ccnc(F)c3)C[C@H]2C)c1` [Example 2, (R)-1-(3-Methoxyphenyl)ethyl (R)-4-(2-fluoropyridin-4-yl)-2-methylpiperazine-1-carboxylate], the IC50 is 1690 nM in test [1] (Rattus norvegicus, A7R5, 1 h) and 30.7 nM in test [2]. On to `COc1ccc(Cl)c([C@@H](C)NC(=O)N2CCN(c3ccnc(F)c3)C[C@H]2C)c1` [Example 3, (R)—N—((R)-1-(2-Chloro-5-methoxyphenyl)ethyl)-4-(2-fluoropyridin-4-yl)-2-methylpiperazine-1-carboxamide], for which the IC50 in test [1] (Rattus norvegicus, A7R5, 1 h) is 2410 nM; in test [2], 59.9 nM. As for `C[C@@H]1CN(c2ccnc(F)c2)CCN1C(=O)NCc1cccc2c1OCO2` [Example 6, (R)—N-(Benzo[d][1,3]dioxol-4-ylmethyl)-4-(2-fluoropyridin-4-yl)-2-methylpiperazine-1-carboxamide], the IC50 in test [2] was determined as 117 nM. For `C[C@@H]1CN(c2ccnc(F)c2)CCN1C(=O)NCc1cccc2occc12` [Example 8, (R)—N-(Benzofuran-4-ylmethyl)-4-(2-fluoropyridin-4-yl)-2-methylpiperazine-1-carboxamide], the IC50 was determined as 676 nM in test [1] (Rattus norvegicus, A7R5, 1 h) and 22 nM in test [2]. Taken in the same sequence, the figures for `Cc1cnc2cccc([C@@H](C)NC(=O)N3CCN(c4ccnc(F)c4)C[C@H]3C)n12` [Example 9, (R)-4-(2-Fluoropyridin-4-yl)-2-methyl-N—((R)-1-(3-methylimidazo[1,2-a]pyridin-5-yl)ethyl)piperazine-1-carboxamide] were 240 nM and 12.3 nM. Turning to `C[C@@H]1CN(c2ccnc(F)c2)CCN1C(=O)NCc1cccc2nn(C)cc12` [Example 11, (R)-4-(2-Fluoropyridin-4-yl)-2-methyl-N-((2-methyl-2H-indazol-4-yl)methyl)piperazine-1-carboxamide], the IC50 came to 411 nM in test [1] (Rattus norvegicus, A7R5, 1 h) and 32.7 nM in test [2].

As for `C[C@@H]1CN(c2ccnc(F)c2)CCN1C(=O)N[C@H](C)c1cccc2c1OCO2` [Example 12, (R)—N—((R)-1-(Benzo[d][1,3]dioxol-4-yl)ethyl)-4-(2-fluoropyridin-4-yl)-2-methylpiperazine-1-carboxamide], the IC50 worked out at 200 nM in test [1] (Rattus norvegicus, A7R5, 1 h) and 11.5 nM in test [2]. Consider `C[C@@H]1CN(C(=O)N[C@H](C)c2ccccc2Cl)CCN1c1ccnc(F)c1` [Example 13, (R)—N—((R)-1-(2-Chlorophenyl)ethyl)-4-(2-fluoropyridin-4-yl)-3-methylpiperazine-1-carboxamide], for which the IC50 in test [1] (Rattus norvegicus, A7R5, 1 h) is no less than 5000 nM; in test [2], 4790 nM. Regarding `C[C@@H]1CN(C(=O)N[C@H](C)c2ccc(F)cc2Cl)CCN1c1ccnc(F)c1` [Example 14, (R)—N—((R)-1-(2-Chloro-4-fluorophenyl)ethyl)-4-(2-fluoropyridin-4-yl)-3-methylpiperazine-1-carboxamide], in test [2], the IC50 is 3410 nM. `COc1cccc([C@@H](C)NC(=O)N2[C@H](C)CN(c3ccnc(F)c3)C[C@H]2C)c1` [Example 15, (2R,6R)-4-(2-Fluoropyridin-4-yl)-N—((R)-1-(3-methoxyphenyl)ethyl)-2,6-dimethylpiperazine-1-carboxamide]: the IC50 is 1390 nM in test [1] (Rattus norvegicus, A7R5, 1 h) and 75.9 nM in test [2]. The like results for `COc1cccc([C@@H](C)NC(=O)N2CCN(c3ccncc3F)CC2)c1` [Example 16, (R)-4-(3-fluoropyridin-4-yl)-N-(1-(3-methoxyphenyl)ethyl)piperazine-1-carboxamide] were, in that order, 122 nM and 7.6 nM.

In the case of `COc1cccc([C@@H](C)OC(=O)N2CCN(c3ccncc3F)CC2)c1` [Example 17, (R)-1-(3-Methoxyphenyl)ethyl 4-(3-fluoropyridin-4-yl)piperazine-1-carboxylate], the IC50 was determined as 1090 nM in test [1] (Rattus norvegicus, A7R5, 1 h) and 32.3 nM in test [2]. As for `COc1cccc([C@@H](C)NC(=O)N2CCN(c3ccncc3F)CC2)c1F` [Example 18, (R)—N-(1-(2-Fluoro-3-methoxyphenyl)ethyl)-4-(3-fluoropyridin-4-yl)piperazine-1-carboxamide], the IC50 in test [1] (Rattus norvegicus, A7R5, 1 h) worked out at 2550 nM; in test [2], 198 nM. On to `COc1cccc([C@@H](C)NC(=O)N2CCN(c3ccncc3F)CC2)c1Cl` [Example 20], for which the IC50 was no less than 5000 nM in test [1] (Rattus norvegicus, A7R5, 1 h) and 581 nM in test [2].

Consider `COc1ccc(Cl)c([C@@H](C)NC(=O)N2CCN(c3ccncc3F)CC2)c1` [Example 24, (R)—N-(1-(2-Chloro-5-methoxyphenyl)ethyl)-4-(3-fluoropyridin-4-yl)piperazine-1-carboxamide], for which the IC50 in test [1] (Rattus norvegicus, A7R5, 1 h) was determined as 902 nM; in test [2], 37.5 nM. Take `COc1cccc(CNC(=O)N2CCN(c3ccncc3F)CC2)c1` [Example 25, 4-(3-Fluoropyridin-4-yl)-N-(3-methoxybenzyl)piperazine-1-carboxamide]: the IC50 in test [1] (Rattus norvegicus, A7R5, 1 h) came out at 749 nM; in test [2], 52.3 nM. For the compound `CC(NC(=O)N1CCN(c2ccncc2F)CC1)c1c(F)cccc1Cl` (centres unmarked) [Example 26, N-(1-(2-Chloro-6-fluorophenyl)ethyl)-4-(3-fluoropyridin-4-yl)piperazine-1-carboxamide], the IC50 in test [1] (Rattus norvegicus, A7R5, 1 h) stood at 1160 nM; in test [2], 65.5 nM. In the case of `C[C@@H](NC(=O)N1CCN(c2ccncc2F)CC1)c1cccc2c1OCO2` [Example 27, (R)—N-(1-(Benzo[d][1,3]dioxol-4-yl)ethyl)-4-(3-fluoropyridin-4-yl)piperazine-1-carboxamide], the IC50 in test [1] (Rattus norvegicus, A7R5, 1 h) turned out to be 87.7 nM; in test [2], 5.8 nM. `C[C@@H](NC(=O)N1CCN(c2ccncc2F)CC1)c1cccc2c1CCO2` [Example 28, (R)—N-(1-(2,3-Dihydrobenzofuran-4-yl)ethyl)-4-(3-fluoropyridin-4-yl)piperazine-1-carboxamide]: the IC50 in test [1] (Rattus norvegicus, A7R5, 1 h) worked out at 27.2 nM; in test [2], 2.8 nM.

`Cc1cnc2cccc([C@H](C)NC(=O)N3CCN(c4ccncc4F)CC3)n12` [Example 35, (S)-4-(3-fluoropyridin-4-yl)-N-(1-(3-methylimidazo[1,2-a]pyridin-5-yl)ethyl)piperazine-1-carboxamide]: in test [2], the IC50 turned out to be 142 nM. In the case of `C[C@H](NC(=O)N1CCN(c2ccncc2F)C[C@H]1C)c1cccc2nn(C)cc12` [Example 72, (R)-4-(3-Fluoropyridin-4-yl)-2-methyl-N—((S)-1-(2-methyl-2H-indazol-4-yl)ethyl)piperazine-1-carboxamide], the IC50 in test [2] came to 86.6 nM. As to `COc1cc(F)cc(CN2C[C@H]3CN(c4ccncc4F)CCN3C2=O)c1` [Example 85, (R)-2-(3-Fluoro-5-methoxybenzyl)-7-(3-fluoropyridin-4-yl)hexahydroimidazo[1,5-a]pyrazin-3(2H)-one], the IC50 in test [2] was determined as 4680 nM. In test [2], `C[C@@H]1CN(c2ccncc2F)C[C@@H](C)N1C(=O)NCc1ccccc1Cl` [Example 92, (2R,6R)—N-(2-Chlorobenzyl)-4-(3-fluoropyridin-4-yl)-2,6-dimethylpiperazine-1-carboxamide] had an IC50 of 563 nM. As for `O=C(NCc1cccc(OC(F)F)c1)N1CCN(c2ccnc(F)c2)CC1` [Example 103], the IC50 in test [2] is 1060 nM. Consider `COc1cccc(CNC(=O)N2CCN(c3ccnc(F)c3)[C@@H](C)C2)c1` [Example 121], for which the IC50 in test [2] stood at 102 nM.

As for `C[C@H]1CN(C(=O)NCc2cccc(OC(F)F)c2)CCN1c1ccnc(F)c1` [Example 122], the IC50 in test [2] stood at 802 nM. On to `C[C@@H]1CN(c2ccncc2F)CCN1C(=O)N[C@H](C)c1cccc2c1N(C)CCO2` [Example 143], for which the IC50 in test [2] was found to be 3070 nM.

The values above are taken from patent US12428413B2 (CHDI Foundation, Inc., priority 2019, dated 2025).
